# Data published in ChEMBL document CHEMBL5244272 (Eur J Med Chem, 2021).
# Legend:
# Plasmodium falciparum [1] = assay: Antimalarial activity against Plasmodium falciparum RKL2; assay type: functional, organism-based
# Plasmodium yoelii [2] = assay: Antimalarial activity against multidrug resistant Plasmodium yoelii infected in swiss mouse assessed as increase in survival at 48 mg/kg, po after 28 days; assay type: functional; conditions: time 28 day
# Plasmodium yoelii [3] = assay: Antimalarial activity against multidrug resistant Plasmodium yoelii infected in swiss mouse assessed as reduction in parasitaemia at 96 mg/kg, po; assay type: functional; design: scale not given: the % may be the effect or the level left
# Plasmodium yoelii [4] = assay: Antimalarial activity against multidrug resistant Plasmodium yoelii infected in swiss mouse assessed as reduction in parasitaemia at 48 mg/kg, po measured on day 4; assay type: functional; design: scale not given: the % may be the effect or the level left; conditions: time 4 day
# Plasmodium berghei [5] = assay: Antimalarial activity against Plasmodium berghei ANKA infected in mouse at 30 mg/kg; assay type: functional
# Plasmodium falciparum [6] = assay: Antimalarial activity against Plasmodium falciparum 3D7; assay type: functional, organism-based; conditions: for EC50: read-out: EC50
# ADR5000 cell line = assay: Cytotoxicity against human CEM/ADR5000 cells; assay type: functional, cell-based
# CCRF-CEM = assay: Cytotoxicity against human CCRF-CEM cells; assay type: functional, cell-based
# Plasmodium yoelii [7] = assay: Potency index, ratio of artesunate ED90 to test compound ED90 for Plasmodium yoelii; assay type: functional
# Plasmodium falciparum [8] = assay: Antimalarial activity against Plasmodium falciparum W2; assay type: functional, organism-based
# Plasmodium yoelii [9] = assay: Antimalarial activity against Plasmodium yoelii infected in sc dosed mouse; assay type: functional
# Plasmodium berghei [10] = assay: Antimalarial activity against Plasmodium berghei infected in sc dosed mouse; assay type: functional; conditions: Plasmodium berghei
# Plasmodium falciparum [11] = assay: Antimalarial activity against Plasmodium falciparum D6; assay type: functional, organism-based
# Plasmodium berghei [12] = assay: Potency index, ratio of artesunate ED90 to test compound ED90 for Plasmodium berghei; assay type: functional
# [13] = Cytotoxicity against HEK293 cells; assay type: toxicity, cell-based; conditions: human
# Plasmodium falciparum [14] = assay: Antimalarial activity against Plasmodium falciparum INDO; assay type: functional, organism-based
# [15] = Selectivity index, ratio of IC50 for HEK293 cells to IC50 for Plasmodium falciparum INDO; assay type: toxicity; conditions: human, read-out: Ratio IC50
# Plasmodium falciparum [16] = assay: Potency index, ratio of chloroquine IC50 to test compound IC50 for Plasmodium falciparum INDO; assay type: functional
# Plasmodium berghei [17] = assay: Antimalarial activity against Plasmodium berghei infected in Swiss mouse at 2 mg/kg/day, po; assay type: functional
# Cytomegalovirus = assay: Antiviral activity against HCMV; assay type: functional, organism-based; conditions: Human betaherpesvirus 5
# Plasmodium falciparum [18] = assay: Potency index, ratio of artemisinin IC50 to test compound IC50 for Plasmodium falciparum HB3; assay type: functional
# Plasmodium falciparum [19] = assay: Potency index, ratio of artemisinin IC50 to test compound IC50 for Plasmodium falciparum K1; assay type: functional
# Plasmodium falciparum [20] = assay: Antimalarial activity against Plasmodium falciparum NF54; assay type: functional, organism-based
# Plasmodium falciparum [21] = assay: Antimalarial activity against late stage Plasmodium falciparum gametocytes; assay type: functional, organism-based
# Plasmodium falciparum [22] = assay: Antimalarial activity against Plasmodium falciparum K1; assay type: functional, organism-based
# Plasmodium yoelii [23] = assay: Antimalarial activity against multidrug resistant Plasmodium yoelii infected in swiss mouse assessed as reduction in parasitaemia at 96 mg/kg, po measured on day 4; assay type: functional; design: scale not given: the % may be the effect or the level left; conditions: time 4 day
# Plasmodium yoelii [24] = assay: Antimalarial activity against multidrug resistant Plasmodium yoelii infected in swiss mouse assessed as increase in survival at 96 mg/kg, po after 28 days; assay type: functional; conditions: time 28 day
# Plasmodium falciparum [25] = assay: Antimalarial activity against Plasmodium falciparum HB3; assay type: functional, organism-based
# Plasmodium falciparum [26] = assay: Antimalarial activity against Plasmodium falciparum SGE2; assay type: functional, organism-based
# Plasmodium falciparum [27] = assay: Antimalarial activity against chloroquine-sensitive Plasmodium falciparum NF54; assay type: functional, organism-based
# Plasmodium falciparum [28] = assay: Antimalarial activity against Plasmodium falciparum Dd2; assay type: functional, organism-based
# Plasmodium falciparum [29] = assay: Antimalarial activity against chloroquine resistant Plasmodium falciparum; assay type: functional, organism-based
# Plasmodium berghei [30] = assay: Antimalarial activity against Plasmodium berghei N strain infected in mouse at 30 mg/kg, ip administered once daily for 4 days; assay type: functional; conditions: time 4 day
# Plasmodium falciparum [31] = assay: Antimalarial activity against chloroquine sensitive Plasmodium falciparum FCR-3; assay type: functional, organism-based
# [32] = Half life in human; assay type: ADME
# Plasmodium falciparum [33] = assay: Antimalarial activity against chloroquine-sensitive Plasmodium falciparum HB3; assay type: functional, organism-based
smiles,measurement,setting,value
CC1(C)OOC(c2ccccc2)(c2ccccc2)OO1,IC50,Plasmodium falciparum [1],3.91 µg/mL
C=C(c1ccc(-c2ccccc2)cc1)C1COC2(CCC(Nc3ccccc3)CC2)OO1 (stereo not drawn),Activity,Plasmodium yoelii [2],60%
same,Activity,Plasmodium yoelii [3],100%
same,Activity,Plasmodium yoelii [4],100%
FC1CCN(CCOc2ccc(C3CCC4(CC3)OOC3(OO4)C4CC5CC(C4)CC3C5)cc2)CC1 (stereo not drawn),Activity,Plasmodium berghei [5],99.65%
same,IC50,Plasmodium falciparum [6],5.1 nM
C[C@H]1[C@H](OC(=O)CCC(=O)Nc2ccc3ncnc(Cc4ccc(Cl)c(Cl)c4)c3c2)O[C@@H]2O[C@]3(C)CC[C@H]4[C@H](C)CC[C@@H]1[C@@]24OO3,EC50,ADR5000 cell line,500 nM
same,EC50,CCRF-CEM,2800 nM
same,EC50,Plasmodium falciparum [6],1.4 nM
C[C@H]1[C@H](Nc2ccc(F)cc2)O[C@@H]2O[C@]3(C)CC[C@H]4[C@H](C)CC[C@@H]1[C@@]24OO3,Ratio,Plasmodium yoelii [7],13
same,IC50,Plasmodium falciparum [8],0.64 ng/mL
same,ED90,Plasmodium yoelii [9],0.6 mg/kg
same,ED90,Plasmodium berghei [10],0.35 mg/kg
same,IC50,Plasmodium falciparum [11],0.64 ng/mL
same,Ratio,Plasmodium berghei [12],13
C=C(c1ccc2c(c1)CCCC2)C1COC2(CCCCC2)OO1 (stereo not drawn),CC50,[13],30.1 µM
same,IC50,Plasmodium falciparum [14],51 nM
same,selectivity ratio,[15],589
same,Ratio IC50,Plasmodium falciparum [16],11
CC(C)(N)CNC(=O)O[C@@H]1CCC[C@]2(C1)OOC1(O2)C2CC3CC(C2)CC1C3 (stereo partly drawn),IC50,Plasmodium falciparum [8],1.8 nM
same,Activity,Plasmodium berghei [17],100%
C[C@H]1[C@H](OC(=O)CCC(=O)OCCOC(=O)CC(=O)OCCOC(=O)CCC(=O)O[C@@H]2O[C@@H]3O[C@]4(C)CC[C@H]5[C@H](C)CC[C@@H]([C@H]2C)[C@@]35OO4)O[C@@H]2O[C@]3(C)CC[C@H]4[C@H](C)CC[C@@H]1[C@@]24OO3,EC50,Plasmodium falciparum [6],1.4 nM
same,EC50,Cytomegalovirus,0.57 nM
COP(=O)(OCC[C@H]1O[C@@H]2O[C@]3(C)CC[C@H]4[C@H](C)CC[C@@H]([C@H]1C)[C@@]24OO3)OCC[C@H]1O[C@@H]2O[C@]3(C)CC[C@H]4[C@H](C)CC[C@@H]([C@H]1C)[C@@]24OO3,Ratio IC50,Plasmodium falciparum [18],>50
same,Ratio IC50,Plasmodium falciparum [19],>50
C[C@@H]1CC[C@H]2[C@@H](C)C(=O)N(S(=O)(=O)c3cccs3)[C@@H]3O[C@]4(C)CC[C@@H]1[C@@]23OO4,IC50,Plasmodium falciparum [20],5.68 nM
same,IC50,Plasmodium falciparum [21],8.6 nM
same,IC50,Plasmodium falciparum [22],6.27 nM
same,IC50,Plasmodium falciparum [8],4.26 nM
C=C(c1ccccc1)C1COC2(OO1)C1CC3CC(C1)CC2C3 (stereo not drawn),Activity,Plasmodium yoelii [23],96%
same,Activity,Plasmodium yoelii [24],80%
C[C@@H]1CC[C@H]2[C@@H](C)C(=O)O[C@@H]3O[C@@]4(C)CC[C@@H]1[C@]32OO4 [ARTEMISININ],IC50,Plasmodium falciparum [25],7 nM
same,IC50,Plasmodium falciparum [26],9 nM
same,IC50,Plasmodium falciparum [27],18.4 nM
same,IC50,Plasmodium falciparum [28],13 nM
same,EC50,Plasmodium falciparum [22]; read-out: EC50,3.6 nM
same,IC50,Plasmodium falciparum [29],0.001 mg/cm3
same,ED50,Plasmodium berghei [10],3 mg/kg
same,Activity,Plasmodium berghei [30],74.5%
same,IC50,Plasmodium falciparum [11],55 nM
same,IC50,Plasmodium falciparum [31],1.4 nM
same,half-life,[32],120 min
same,IC50,Plasmodium falciparum [33],3.04 nM
